Columns and labels:
[1] = molecular target: T1, STAT3–ubiquitin complex (Homo sapiens, UniProt P40763); assay: Immunoprecipitation and Western blot of STAT3–ubiquitin complex; assay type: cell-based; details: H460, 2.5 µM, 6 h, MG132 10 µM pretreatment, vs untreated cells
T1 construct: endogenous in cells; host or cells: NCI-H460 (ATCC HTB-177)
Method: To explore whether the reduction in total STAT3 protein after DH_31 treatments (as shown in Figure 5B–E) occurs at the mRNA or protein levels, we first investigated mRNA levels using Real-time qPCR. […] To evaluate whether DH_31 affects STAT3 stability, pretreatment with MG132, a potent selective proteasome inhibitor, was performed. H460 cells were pretreated with or without MG132 (10 μM) for 1 h and then cells were either treated with DH_31 for 6 h or left untreated. […] The proteasome can recognize and degrade protein targets that are conjugated by single or poly-ubiquitin molecules. To investigate the ubiquitination level of STAT3 with DH_31 treatments, the ubiquitination level was evaluated using immunoprecipitation and Western blot analysis of the STAT3–ubiquitin complex in the lung cancer cells treated with DH_31 and in untreated cells.
Immunoprecipitation assay was performed to investigate ubiquitin–proteasomal degradation, shedding light on the regulatory mechanisms involved. H460 cells (4.0 × 10^5 cells per well) were seeded in 6-well plates. Following overnight incubation, the cells were pretreated with 10 μM of a proteasome inhibitor, MG132, for 1 h to prevent proteasomal degradation, and then were treated with different concentrations of DH_31 (0–2.5 μM) for 6 h. After treatment, the cells were lysed as described above. […]

[2] = molecular target: T2, STAT3 (Homo sapiens, UniProt P40763); assay: STAT3 immunofluorescence and confocal microscopy; assay type: cell-based; details: H460, 2.5 µM, 24 h (p < 0.001)
T2 construct: endogenous in cells; host or cells: NCI-H460 (ATCC HTB-177)
Method: To explore whether DH_31 could suppress STAT3, H460 cells were treated with 1 and 2.5 μM of DH_31 for 24 h. Immunofluorescence and confocal microscopy were performed to visualize STAT3 expression.
Immunofluorescence staining and confocal microscopy were conducted to visualize the subcellular localization and spatial distribution of specific proteins. H460 cells (1.0 × 10^4 cells per well) were seeded in 96-well plates. Following overnight incubation, the cells were treated with different concentrations of DH_31 (0–2.5 μM) for 24 h at 37 °C. After treatment, the cells were permeabilized with 0.5% Triton-X in PBS for 5 min, followed by the blocking of non-specific proteins with 10% FBS in 0.1% Triton-X PBS for 1 h at room temperature. Subsequently, the cells were exposed to primary antibodies (STAT3, Slug, Snail, Vimentin, N-cadherin, ZO1, and ZEB1) and incubated at 4 °C overnight. The cells were then incubated with Alexa Fluor 488- or 594-conjugated secondary antibodies and Hoechst 33342 for 1 h at room temperature. After washing with PBS, the cells were covered with 50% glycerol. The images were captured by confocal microscopy (Zeiss, Jena, Germany). The fluorescence intensity was measured using ImageJ™ software (Image J 1.52a, Rasband, W., National Institutes of Health, Bethesda, MD, USA).

T2 sequence (P40763 whole entry): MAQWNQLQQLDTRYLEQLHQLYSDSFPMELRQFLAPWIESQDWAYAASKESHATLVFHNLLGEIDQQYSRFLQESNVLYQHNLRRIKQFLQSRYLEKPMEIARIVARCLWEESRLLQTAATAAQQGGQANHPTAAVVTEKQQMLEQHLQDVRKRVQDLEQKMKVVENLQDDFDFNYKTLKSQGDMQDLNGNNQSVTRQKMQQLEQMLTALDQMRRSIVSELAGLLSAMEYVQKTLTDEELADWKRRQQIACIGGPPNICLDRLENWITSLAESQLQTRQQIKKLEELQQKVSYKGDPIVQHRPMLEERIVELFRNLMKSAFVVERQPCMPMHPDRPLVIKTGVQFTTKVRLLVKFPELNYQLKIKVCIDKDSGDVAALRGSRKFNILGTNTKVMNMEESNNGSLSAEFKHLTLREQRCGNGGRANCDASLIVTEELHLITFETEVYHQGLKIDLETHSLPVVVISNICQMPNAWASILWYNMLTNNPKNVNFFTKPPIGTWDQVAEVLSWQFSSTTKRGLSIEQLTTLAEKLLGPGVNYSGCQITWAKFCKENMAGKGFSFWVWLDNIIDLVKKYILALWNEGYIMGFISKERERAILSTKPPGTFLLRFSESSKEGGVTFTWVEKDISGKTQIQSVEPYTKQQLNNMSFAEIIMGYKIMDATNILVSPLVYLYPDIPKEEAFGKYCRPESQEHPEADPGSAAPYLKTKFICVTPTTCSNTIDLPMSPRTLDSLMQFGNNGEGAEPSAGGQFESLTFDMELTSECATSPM
T1 sequence (P40763 2-770 limits assumed, one chain of several): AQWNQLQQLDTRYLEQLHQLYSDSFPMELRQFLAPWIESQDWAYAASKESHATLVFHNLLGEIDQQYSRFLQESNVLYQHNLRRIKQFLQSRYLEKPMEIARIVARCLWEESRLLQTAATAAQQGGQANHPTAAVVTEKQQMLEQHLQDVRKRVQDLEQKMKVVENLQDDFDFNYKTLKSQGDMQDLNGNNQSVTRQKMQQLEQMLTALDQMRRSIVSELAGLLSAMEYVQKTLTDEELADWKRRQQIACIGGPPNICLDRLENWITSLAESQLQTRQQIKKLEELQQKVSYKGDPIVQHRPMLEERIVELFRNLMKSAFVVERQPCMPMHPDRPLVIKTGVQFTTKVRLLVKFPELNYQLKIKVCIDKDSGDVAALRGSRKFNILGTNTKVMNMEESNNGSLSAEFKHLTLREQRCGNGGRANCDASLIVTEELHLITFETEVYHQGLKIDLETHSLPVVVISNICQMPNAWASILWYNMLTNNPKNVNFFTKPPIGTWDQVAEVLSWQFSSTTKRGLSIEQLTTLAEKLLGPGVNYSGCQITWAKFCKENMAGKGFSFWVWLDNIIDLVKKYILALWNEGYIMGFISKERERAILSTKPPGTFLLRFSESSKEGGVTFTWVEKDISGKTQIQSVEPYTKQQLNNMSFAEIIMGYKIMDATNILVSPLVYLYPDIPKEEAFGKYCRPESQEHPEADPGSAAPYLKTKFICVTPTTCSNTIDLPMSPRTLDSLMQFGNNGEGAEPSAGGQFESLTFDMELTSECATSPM

COc1c(C)cc2c(c1O)[C@@H]1CN(Cc3ccc4ccccc4c3)[C@@H](C#N)[C@H](C2)N1C [DH_31, (1R,4R,5S)-10-hydroxy-9-methoxy-8,11-dimethyl-3-(naphthalen-2-ylmethyl)-1,2,3,4,5,6-hexahydro-1,5-epiminobenzo[d]azocine-4-carbonitrile]
STAT3–ubiquitin formation [1]: significantly enhanced | STAT3 expression (immunofluorescence) [2]: significant reduction

From paper PMC11355573, “A New Renieramycin T Right-Half Analog as a Small Molecule Degrader of STAT3” (Marine Drugs, 2024)
